According to ChEMBL document CHEMBL5512663, “Design, synthesis, and evaluation of novel quindoline derivatives with fork-shaped side chains as RNA G-quadruplex stabilizers for repressing oncogene NRAS translation” (Eur J Med Chem, 2024):
Calls of active or inactive are those of the source. No cut-off for these calls is given here.

How the values were obtained:
[1] = tested on: Quadruplex RNA; test: Thermal stabilization of NRAS RNA G4 (unknown origin) assessed as change in melting temperature at 10 uM by CD spectrophotometer analysis; format: nucleic-acid assay
[2] = tested on: SK-MEL-2; test: Cytotoxicity against human SK-MEL-2 cells incubated for 48 hrs by MTT assay; format: functional, cell-based; details: SK-MEL-2, 48 h
[3] = tested on: Quadruplex DNA; test: Thermal stabilization of NRAS DNA G4 (unknown origin) assessed as change in melting temperature at 10 uM by CD spectrophotometer analysis; format: nucleic-acid assay
[4] = tested on: Quadruplex DNA; test: Thermal stabilization of KRAS G4 (unknown origin); format: nucleic-acid assay
[5] = Thermal stabilization of thrombin binding aptamer (unknown origin)
[6] = tested on: dsDNA; test: Thermal stabilization of DNA duplex (ds18) (unknown origin); format: nucleic-acid assay
[7] = tested on: RNA; test: Thermal stabilization of RNA hairpin (unknown origin); format: nucleic-acid assay
[8] = biological target: Quadruplex RNA; test: Binding affinity to NRAS RNA G4 (unknown origin) by SPR method; format: nucleic-acid assay
[9] = tested on: Quadruplex RNA; test: Induction of RNA G4s stabilization in human SK-MEL-2 cells assessed as increase in cytoplasmic rG4s after 24 hrs by immunofluorescence assay; format: cell-based
[10] = tested on: Quadruplex RNA; test: Induction of NRAS RNA G4 stabilization in human SK-MEL-2 cells transfected with NRAS 5'-UTR wild-type assessed as reduction in ratio of RL to FL at 0.5 uM incubated for 66 hrs by dual luciferase reporter gene assay; format: cell-based
[11] = tested on: Quadruplex RNA; test: Induction of NRAS RNA G4 stabilization in human SK-MEL-2 cells transfected with NRAS mutant assessed as reduction in ratio of RL to FL at 0.5 uM incubated for 66 hrs by dual luciferase reporter gene assay; format: cell-based
[12] = tested on: SK-MEL-2; test: Downregulation of NRAS protein level in human SK-MEL-2 cells after 72 hrs by Western blotting analysis; format: functional, cell-based; details: dose 0.5-1 µM
[13] = tested on: SK-MEL-2; test: Downregulation of NRAS mRNA level in human SK-MEL-2 cells by qRT-PCR analysis; format: functional, cell-based
[14] = tested on: SK-MEL-2; test: Inhibition of colony formation in human SK-MEL-2 cells at 0.13 to 0.25 uM after 10 days by crystal violet staining based assay; format: functional, cell-based; details: dose 0.13-0.25 µM, time 10.0 day
[15] = tested on: SK-MEL-2; test: Antiproliferative activity against human SK-MEL-2 cells at 0.25 uM incubated for 48 hrs by MTT assay; format: functional
[16] = tested on: MCF7; test: Cytotoxicity against human MCF7 cells incubated for 48 hrs by MTT assay; format: functional, cell-based; details: MCF7, 48 h
[17] = tested on: HepG2; test: Cytotoxicity against human HepG2 cells incubated for 48 hrs by MTT assay; format: functional, cell-based; details: HepG2, 48 h
[18] = tested on: HL-60; test: Cytotoxicity against human HL-60 cells incubated for 48 hrs by MTT assay; format: functional, cell-based; details: HL-60, 48 h
[19] = tested on: A-375; test: Cytotoxicity against human A-375 cells incubated for 48 hrs by MTT assay; format: functional, cell-based; details: A-375, 48 h
[20] = Drug localization in human SK-MEL-2 cells cytoplasm at 0.5 uM incubated for 24 hrs by laser scanning confocal microscopy; format: ADME, subcellular; details: sk-mel-2, 24 h
[21] = tested on: SK-MEL-2; test: Antitumor activity against human SK-MEL-2 cells xenografted in BALB/c nude mouse assessed as reduction in tumor volume at 1 mg/kg, ip measured every 3 days; format: functional, organism-based; details: time 21.0 day, TDE = time-dependent effect
[22] = tested on: SK-MEL-2; test: Antitumor activity against human SK-MEL-2 cells xenografted in BALB/c nude mouse assessed as reduction in tumor weight at 1 mg/kg, ip; format: functional, organism-based; details: time 21.0 day, TDE = time-dependent effect
[23] = tested on: SK-MEL-2; test: Antitumor activity against human SK-MEL-2 cells xenografted in BALB/c nude mouse assessed as reduction in tumor growth inhibition at 1 mg/kg, ip administered every day for 21 days; format: functional; details: SK-MEL-2, 504 h, time 21 day, read-out: TGI
[24] = Toxicity in BALB/c nude mouse assessed as weight loss at 1 mg/kg, ip administered every day for 21 days and measured every 3 days; format: organism-based; details: in vivo, 504 h, time 21 day
[25] = Toxicity in BALB/c nude mouse assessed as organ damage at 1 mg/kg, ip administered every day for 21 days; format: organism-based; details: in vivo, 504 h, time 21 day
[26] = Toxicity in BALB/c nude mouse assessed as pain at 1 mg/kg, ip administered every day for 21 days; format: organism-based; details: in vivo, 504 h, time 21 day
[27] = Toxicity in BALB/c nude mouse assessed as distress at 1 mg/kg, ip administered every day for 21 days; format: organism-based; details: in vivo, 504 h, time 21 day
[28] = Toxicity in BALB/c nude mouse assessed as discomfort at 1 mg/kg, ip administered every day for 21 days; format: organism-based; details: in vivo, 504 h, time 21 day

CCCCN(CCCC)CCCNc1ccc2nc3c(oc4ccc(F)cc43)c(NCCN(C)C)c2c1
ΔTm [1]: 19.4 °C | IC50 [2]: 3.4 µM

CCCCN(CCCC)CCOc1ccc2nc3c(oc4ccc(F)cc43)c(NCCN3CCCCC3)c2c1
ΔTm [1]: 26.2 °C | IC50 [2]: 8.8 µM

CCCCN(CCCC)CCCNc1ccc2nc3c(oc4ccc(F)cc43)c(NCCN3CCCC3)c2c1
ΔTm [1]: 19.8 °C | IC50 [2]: 3.4 µM

CCCCN(CCCC)CCCOc1ccc2nc3c(oc4ccc(F)cc43)c(NCCN(C)C)c2c1
ΔTm [1]: 23.9 °C | IC50 [2]: 4 µM

CCN(CC)CCCOc1ccc2nc3c(oc4ccc(F)cc43)c(NCCCN)c2c1
ΔTm [1]: 25.3 °C | IC50 [2]: 3.9 µM

CCCCN(CCCC)CCCOc1ccc2nc3c(oc4ccc(F)cc43)c(NCCN3CCCCC3)c2c1
ΔTm [1]: 24.4 °C | IC50 [2]: 5.5 µM

CCCCN(CCCC)CCCOc1ccc2nc3c(oc4ccccc43)c(NCCCN)c2c1
ΔTm [1]: 19.5 °C | IC50 [2]: 2.6 µM

CCCCN(CCCC)CCCNc1ccc2nc3c(oc4ccc(F)cc43)c(NCCN3CCN(C)CC3)c2c1
ΔTm [1]: 25.5 °C | IC50 [2]: 4.3 µM

CCCCN(CCCC)CCCOc1ccc2nc3c(oc4ccc(F)cc43)c(NCCN3CCN(C)CC3)c2c1
ΔTm [1]: 31.8 °C | IC50 [2]: 4 µM

NCCCNc1c2cc(OCCN3CCCCCC3)ccc2nc2c1oc1ccc(F)cc12
ΔTm [1]: 24.2 °C | IC50 [2]: 5.4 µM

CCN(CC)CCCOc1ccc2nc3c(oc4ccc(F)cc43)c(NCCN(C)C)c2c1
ΔTm [1]: 26.3 °C | IC50 [2]: 6.4 µM

CN(C)CCNc1c2cc(OCCN3CCCCCC3)ccc2nc2c1oc1ccc(F)cc12
ΔTm [1]: 18.1 °C | IC50 [2]: 6.6 µM

CCCCN(CCCC)CCOc1ccc2nc3c(oc4ccc(F)cc43)c(NCCCN)c2c1
ΔTm [1]: 22.1 °C | IC50 [2]: 2 µM

Fc1ccc2oc3c(NCCN4CCCC4)c4cc(OCCN5CCCCCC5)ccc4nc3c2c1
ΔTm [1]: 21.4 °C | IC50 [2]: 6.9 µM

CCCCN(CCCC)CCCOc1ccc2nc3c(oc4ccccc43)c(NCCN3CCCC3)c2c1
ΔTm [1]: 20.2 °C | IC50 [2]: 4.5 µM

CN(C)CCCCCCOc1ccc2nc3c(oc4ccc(F)cc43)c(NCCN(C)C)c2c1
ΔTm [1]: 24.1 °C | IC50 [2]: 7.2 µM

CCCCN(CCCC)CCOc1ccc2nc3c(oc4ccc(F)cc43)c(NCCN(C)C)c2c1
ΔTm [1]: 26.3 °C | IC50 [2]: 4.5 µM

CCCCN(CCCC)CCCOc1ccc2nc3c(oc4ccc(F)cc43)c(NCCN3CCCC3)c2c1
ΔTm [1]: 20.8 °C | IC50 [2]: 4 µM

CCCCN(CCCC)CCCOc1ccc2nc3c(oc4ccc(F)cc43)c(NCCN)c2c1
ΔTm [1]: 22.9 °C | IC50 [2]: 2.2 µM

CCN(CC)CCCOc1ccc2nc3c(oc4ccc(F)cc43)c(NCCN)c2c1
ΔTm [1]: 21.2 °C | IC50 [2]: 6.7 µM

CSc1ccc(/C=C/c2ccc3nc4c(oc5ccccc54)c(NCCN4CCN(C)CC4)c3c2)cc1
ΔTm [1]: 16.8 °C | IC50 [2]: 3.2 µM

CCCCN(CCCC)CCCNc1ccc2nc3c(oc4ccc(F)cc43)c(NCCN3CCCCC3)c2c1
ΔTm [1]: 21.3 °C | IC50 [2]: 5.4 µM

CN(C)CCCCCCOc1ccc2nc3c(oc4ccc(F)cc43)c(NCCN)c2c1
ΔTm [1]: 20.7 °C | IC50 [2]: 7.1 µM

CCN(CC)CCCOc1ccc2nc3c(oc4ccc(F)cc43)c(NCCN3CCCC3)c2c1
ΔTm [1]: 26.3 °C | IC50 [2]: 7.1 µM

CCCCN(CCCC)CCCOc1ccc2nc3c(oc4ccccc43)c(NCCN(C)C)c2c1
ΔTm [1]: 22 °C | IC50 [2]: 5.7 µM

CCCCN(CCCC)CCOc1ccc2nc3c(oc4ccc(F)cc43)c(NCCN3CCCC3)c2c1
ΔTm [1]: 24 °C | IC50 [2]: 5.1 µM

NCCNc1c2cc(OCCN3CCCCCC3)ccc2nc2c1oc1ccc(F)cc12
ΔTm [1]: 18.1 °C | IC50 [2]: 6.3 µM

CCCCN(CCCC)CCOc1ccc2nc3c(oc4ccc(F)cc43)c(NCCN)c2c1
ΔTm [1]: 13.4 °C | IC50 [2]: 5.1 µM

CN(C)CCCCCCOc1ccc2nc3c(oc4ccc(F)cc43)c(NCCCN)c2c1
ΔTm [1]: 25.3 °C | IC50 [2]: 7.7 µM

CCCCN(CCCC)CCCOc1ccc2nc3c(oc4ccc(F)cc43)c(NCCCN)c2c1
ΔTm [1]: 26.1 °C | IC50 [2]: 2 µM | ΔTm [3]: 19 °C | Activity [4]: inactive | Activity [5]: inactive | Activity [6]: inactive | Activity [7]: inactive | Kd [8]: 2.31 µM | Activity [9]: Active | Activity [10]: Active | Activity [11]: inactive | Activity [12]: Dose-Dependent Effect | Activity [13]: inactive | inhibition [14]: Active | Activity [15]: 100% | IC50 [16]: 4.1 µM | IC50 [17]: 1.5 µM | IC50 [18]: 2.7 µM | IC50 [19]: 4.5 µM | Drug uptake [20]: Active | Activity [21]: Tde | Activity [22]: Tde | inhibition in vivo at 1 mg/kg [23]: 54.9% | Activity [24]: Non-Toxic | Activity [25]: Non-Toxic | Activity [26]: Non-Toxic | Activity [27]: Non-Toxic | Activity [28]: Non-Toxic

CCCCN(CCCC)CCOc1ccc2nc3c(oc4ccc(F)cc43)c(NCCN3CCN(C)CC3)c2c1
ΔTm [1]: 30.6 °C | IC50 [2]: 7.6 µM

CCCCN(CCCC)CCCNc1ccc2nc3c(oc4ccc(F)cc43)c(NCCCN)c2c1
ΔTm [1]: 19.3 °C | IC50 [2]: 4.5 µM

CN(C)CCCCCCOc1ccc2nc3c(oc4ccc(F)cc43)c(NCCN3CCCC3)c2c1
ΔTm [1]: 24.8 °C | IC50 [2]: 7.4 µM
